In patent US20070032418A1, “Small-molecule inhibitors of angiogenin and rnases and in vivo and in vitro methods of using same” (Ambion, Inc, priority 2003, published 2007):
pKi: −log10 of the molar value. Read-outs that look alike come from different tables or passages of the source.

Molecular target: angiogenin (ANG) (Homo sapiens, UniProt P03950)
Experiment: Inhibition of ANG ribonucleolytic activity, HPLC assay of oligonucleotide cleavage
Type: biochemical
Procedure: Reaction mixtures with and without test compounds were chromatographed on a Mono Q anion-exchange column with an NaCl gradient in 10 mM Tris, pH 8. […] This information was used to calculate kcat/Km values, which were then fitted to the equation (kcat/Km)i=(kcat/Km)0/[…], where (kcat/Km)i and (kcat/Km)0 are defined as the values in the presence and absence of inhibitor, respectively, and [I] is defined as the inhibitor concentration. At least four concentrations (in a range of about 10 μM-above 100 μM) were used in the final hit confirmation in order to distinguish all true hits.
Chemical structures of selected compounds are shown in these Tables and in FIGS. 4 and 5.

[1] = inhibition of ANG-catalyzed cleavage of an RNA oligonucleotide, 20 mM Hepes, 100 mM NaCl, 37° C.

Chain of angiogenin (ANG) (P03950 25-147): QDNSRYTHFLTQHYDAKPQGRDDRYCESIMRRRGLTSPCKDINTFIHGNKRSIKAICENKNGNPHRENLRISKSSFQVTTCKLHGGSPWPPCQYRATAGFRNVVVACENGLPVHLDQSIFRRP

Row | Compound | pKi (read-out: KI) | also measured
1 | Nc1cc(S(=O)(=O)O)cc2cc(S(=O)(=O)O)c(/N=N/c3ccc([N+](=O)[O-])cc3)c(O)c12 [NCI-45550] | 3.74 | –
2 | O=[N+]([O-])c1cccc(/N=N/c2c(O)c(S(=O)(=O)O)cc3cc(S(=O)(=O)O)ccc23)c1 [NCI-45541] | 3.61 | –
3 | O=S(=O)(O)c1cc(O)c2c(/N=N/c3ccc(/N=N/c4c(S(=O)(=O)O)cc5cc(Nc6ccccc6)ccc5c4O)c4ccccc34)cc(S(=O)(=O)O)cc2c1 [NCI-75916] | 3.90 | –
4 | Cc1ccc(C(=O)Nc2ccc(S(=O)(=O)O)c3cc(S(=O)(=O)O)cc(S(=O)(=O)O)c23)cc1NC(=O)c1cccc(NC(=O)Nc2cccc(C(=O)Nc3cc(C(=O)Nc4ccc(S(=O)(=O)O)c5cc(S(=O)(=O)O)cc(S(=O)(=O)O)c45)ccc3C)c2)c1 [suramin, reference compound] | 5.00 | –
5 | cefsulodin [reference compound] | – | pKi (inhibition of ANG-catalyzed cleavage of an RNA oligonucleotide, 20 mM Hepes, 100 mM NaCl, 37° C., read-out: KI): 3.70
6 | O=S(=O)(O)c1cc(O)c2c(/N=C/c3ccccc3O)cc(S(=O)(=O)O)cc2c1 [NCI-88947] | – | KI [1]: in- active at 75 uM
7 | Cc1cc(/N=N/c2ccc(/N=N/c3c(O)c(S(=O)(=O)O)cc4cc(S(=O)(=O)O)ccc34)cc2C)ccc1/N=N/c1ccc2cc(S(=O)(=O)O)cc(S(=O)(=O)O)c2c1 [NCI-65847] | 4.42 | –
8 | Cc1cc(-c2ccc(/N=N/c3c(O)ccc4cc(S(=O)(=O)O)cc(S(=O)(=O)O)c34)c(C)c2)ccc1/N=N/c1c(O)c(S(=O)(=O)O)cc2cc(S(=O)(=O)O)ccc12 [NCI-65568] | 4.64 | –
9 | O=C(Nc1ccc2cc(S(=O)(=O)O)cc(S(=O)(=O)O)c2c1)Nc1ccc2cc(S(=O)(=O)O)cc(S(=O)(=O)O)c2c1 [NCI-12857] | 3.47 | –
10 | O=C(Nc1cc(S(=O)(=O)O)cc2cc(S(=O)(=O)O)cc(O)c12)c1ccccc1 [NCI-16169] | – | KI [1]: in- active at 75 uM
11 | Nc1ccc(/N=N/c2ccc(/C=C/c3ccc(/N=N/c4ccc(N)c5ccc(S(=O)(=O)O)cc45)cc3S(=O)(=O)O)c(S(=O)(=O)O)c2)c2cc(S(=O)(=O)O)ccc12 [NCI-34933] | 3.76 | –
12 | CC(=O)Nc1ccc(/N=N/c2c(N)ccc3cc(S(=O)(=O)O)cc(O)c23)c(S(=O)(=O)O)c1 [acid red 37] | 4.15 | –
13 | Nc1ccc(/N=N/c2ccc(-c3ccc(/N=N/c4c(S(=O)(=O)O)cc5cc(S(=O)(=O)O)c(/N=N/c6ccccc6)c(O)c5c4N)cc3)cc2)c2ccc(S(=O)(=O)O)cc12 [NCI-79596] | 5.30 | –
14 | Cc1ccc(/N=N/c2c(O)ccc3cc(S(=O)(=O)O)ccc23)cc1 [NCI-7814] | 3.76 | –
15 | Cc1ccc(/N=N/c2c(O)c(S(=O)(=O)O)cc3cc(S(=O)(=O)O)ccc23)c(C)c1 [xylidene ponceau 2R] | – | pKi: 4.31
16 | O=[N+]([O-])c1ccc(/N=N/c2c(S(=O)(=O)O)cc3cc(S(=O)(=O)O)cc(O)c3c2O)cc1 [NCI-45542] | 3.37 | –
17 | CC(=O)Nc1ccc(/N=N/c2ccc(N)c3cc(S(=O)(=O)O)ccc23)cc1 [NCI-45571] | 3.52 | –
18 | Nc1ccc(/N=N/c2ccc(-c3ccc(S(=O)(=O)O)cc3)cc2)c2ccc(S(=O)(=O)O)cc12 [NCI-724225] | 4.09 | –
19 | Nc1ccc2c(O)c(/N=N/c3ccc(-c4ccc(/N=N/c5c(S(=O)(=O)O)cc6cc(S(=O)(=O)O)c(/N=N/c7cc(Cl)ccc7Cl)c(N)c6c5O)cc4)cc3)c(S(=O)(=O)O)cc2c1 [NCI-77521] | 3.71 | –
20 | Nc1ccc2cc(S(=O)(=O)O)cc(O)c2c1/N=N/c1ccc(-c2ccc(/N=N/c3ccc(O)c(C(=O)O)c3)cc2)cc1 [direct red 1] | 4.85 | –
21 | Cc1cc(NC(=O)c2ccc(/N=N/c3c(O)c(S(=O)(=O)O)cc4cc(S(=O)(=O)O)ccc34)cc2)ccc1/N=N/c1ccc2cc(S(=O)(=O)O)cc(S(=O)(=O)O)c2c1 [NCI-65845] | 5.52 | –
22 | Cc1cc(/N=N/c2ccc(NC(=O)c3ccccc3)c3ccc(S(=O)(=O)O)cc23)ccc1/N=N/c1ccc2c(O)cc(S(=O)(=O)O)cc2c1 [NCI-65844] | 3.97 | –
23 | Nc1ccc(/N=N/c2ccc(-c3ccc(/N=N/c4ccc(N)c5cc(S(=O)(=O)O)ccc45)cc3)cc2)c2ccc(S(=O)(=O)O)cc12 [NCI-45618] | 4.82 | –
24 | O=[N+]([O-])c1ccc(/N=N/c2c(O)c(S(=O)(=O)O)cc3cc(S(=O)(=O)O)ccc23)cc1 [NCI-45540] | 3.51 | –
